Values of other authors as cited in patent publication US8309351B2, “Methods of identifying agents that inhibit angiogenesis” (Bionomics Limited, priority 2007, dated 2012).

Tested on: lung cancer cells
Conditions: knock-down of beta III tubulin in lung cancer cells

Q: With `CC(=O)O[C@H]1C(=O)[C@@]2(C)[C@H]([C@H](OC(=O)c3ccccc3)[C@]3(O)C[C@H](OC(=O)[C@H](O)[C@@H](NC(=O)c4ccccc4)c4ccccc4)C(C)=C1C3(C)C)[C@]1(OC(C)=O)CO[C@@H]1C[C@@H]2O` [paclitaxel] as the compound, how does the “increase in paclitaxel sensitivity” value read?
A: The value was 39%.
